target: T1, Chemerin-like receptor 1 (Homo sapiens, UniProt Q99788); experiment: Displacement of [125I]-chemerin from ChemR23 (unknown origin) transfected in mouse BaF3 cells after 3 hrs by scintillation counting method; format: cell-based
T1 sequence (Q99788 whole entry): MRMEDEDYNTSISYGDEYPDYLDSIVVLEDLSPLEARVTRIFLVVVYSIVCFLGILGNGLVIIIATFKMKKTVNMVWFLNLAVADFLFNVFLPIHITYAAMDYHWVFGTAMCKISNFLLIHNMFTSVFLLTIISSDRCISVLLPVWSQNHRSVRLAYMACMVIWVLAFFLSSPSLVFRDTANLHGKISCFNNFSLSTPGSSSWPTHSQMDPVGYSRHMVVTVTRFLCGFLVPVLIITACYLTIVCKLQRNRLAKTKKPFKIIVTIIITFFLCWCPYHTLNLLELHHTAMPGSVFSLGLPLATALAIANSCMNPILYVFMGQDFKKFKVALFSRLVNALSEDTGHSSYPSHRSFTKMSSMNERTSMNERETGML

Compound	IC50 [nM]
CC[C@@]1(C(=O)Nc2cc(N(C)C)cc(C(F)(F)F)c2)CN(c2c(C)cccc2C)C(=O)[C@H]1C	30 to 300
CCc1cccc(C)c1N1CC(C(=O)Nc2cccc(C(F)(F)F)c2)CC1=O (centres undefined)	300 to 6000
CCc1cccc(NC(=O)C2CC(=O)N(c3c(C)cccc3C)C2)c1 (centres undefined)	300 to 6000
CC[C@@]1(C(=O)Nc2cc(F)cc(C(F)(F)F)c2)CN(c2c(C)cccc2C)C(=O)[C@H]1C	30 to 300
COCC1(C(=O)Nc2cc(C(F)(F)F)cc(C(F)(F)F)c2)CC(=O)N(c2c(C)cccc2C)C1 (centres undefined)	≤ 30
Cc1cccc(C)c1N1C[C@@](CN2CCC(F)(F)CC2)(C(=O)Nc2cc(F)cc(C(F)(F)F)c2)[C@H](C)C1=O	30 to 300
CCN(C)C[C@@]1(C(=O)Nc2cc(C3CC3)cc(C(F)(F)F)c2)CN(c2c(C)cccc2C)C(=O)[C@H]1C	30 to 300
Cc1cccc(C)c1N1CC(C(=O)Nc2cc(C(F)(F)F)cc(C(F)(F)F)c2)(C(C)O)CC1=O (centres undefined)	30 to 300
CC[C@@]1(C(=O)Nc2cc(C(F)(F)F)cc(C(F)(F)F)c2)CN(c2c(C)cccc2C)C(=O)[C@@H]1C	30 to 300
CC[C@@]1(C(=O)Nc2cc(CN3CCCC3)cc(C(F)(F)F)c2)CN(c2c(C)cccc2C)C(=O)[C@H]1C	300 to 6000
Cc1cccc(C)c1N1CC(C(=O)Nc2cc(C3CC3)cc(C(F)(F)F)c2)CC1=O (centres undefined)	300 to 6000
Cc1cccc(C)c1N1CC2(C(=O)Nc3cc(C(F)(F)F)cc(C(F)(F)F)c3)COCCC2C1=O (centres undefined)	300 to 6000
Cc1cccc(C)c1N1C[C@@](C)(C(=O)Nc2cc(C(F)(F)F)cc(C(F)(F)F)c2)[C@H](C)C1=O	≤ 30
Cc1cccc(C)c1N1CC2(C(=O)Nc3cc(C(F)(F)F)cc(C(F)(F)F)c3)COC=CC2C1=O (centres undefined)	≤ 30
C=C(C)CC1(C(=O)Nc2cc(C(F)(F)F)cc(C(F)(F)F)c2)CC(=O)N(c2c(C)cccc2C)C1 (centres undefined)	≤ 30
Cc1cccc(C)c1N1CC(CO)(C(=O)Nc2cc(C(F)(F)F)cc(C(F)(F)F)c2)CC1=O (centres undefined)	30 to 300
CC[C@@]1(C(=O)Nc2cc(C(F)(F)F)cc(C(F)(F)F)c2)CN(c2c(C)cccc2C)C(=O)[C@H]1OC	≤ 30
Cc1cccc(C)c1N1C[C@](C(=O)Nc2cc(C(F)(F)F)cc(C(F)(F)F)c2)(C2CCOCC2)[C@@H](C)C1=O	30 to 300
CC[C@@]1(C(=O)Nc2cc(CN3CCCC3C(F)(F)F)cc(C(F)(F)F)c2)CN(c2c(C)cccc2C)C(=O)[C@H]1C (some centres undefined)	≤ 30
Cc1cccc(C)c1N1CC(CCC(C)C)(C(=O)Nc2cc(C(F)(F)F)cc(C(F)(F)F)c2)CC1=O (centres undefined)	≤ 30
Cc1cccc(C)c1N1CC2(C(=O)Nc3cc(C(F)(F)F)cc(C(F)(F)F)c3)CC2C1=O (centres undefined)	300 to 6000
CCCN(CC)C[C@@]1(C(=O)Nc2cc(C(F)(F)F)cc(C(F)(F)F)c2)CN(c2c(C)cccc2C)C(=O)[C@H]1C	≤ 30
Cc1cccc(C)c1N1CC(O)(C(=O)Nc2cc(C(F)(F)F)cc(C(F)(F)F)c2)CC1=O (centres undefined)	30 to 300

Compound	IC50 [nM]
CCN(CC)C[C@@]1(C(=O)Nc2cc(OC(C)C)cc(C(F)(F)F)c2)CN(c2c(C)cccc2C)C(=O)[C@H]1C	30 to 300
Cc1cccc(C2CC2)c1N1CC(C(=O)Nc2cc(C(F)(F)F)cc(C(F)(F)F)c2)CC1=O (centres undefined)	≤ 30
Cc1cccc(C)c1N1C[C@@](CN(C)C(C)C)(C(=O)Nc2cc(C(F)(F)F)cc(C(F)(F)F)c2)[C@H](C)C1=O	≤ 30
CCC1(C(=O)Nc2cc(C(F)(F)F)cc(C(F)(F)F)c2)CC(=O)N(c2c(C)cccc2C)C1 (centres undefined)	≤ 30
Cc1cccc(C)c1N1C[C@@](CN2CCC2)(C(=O)Nc2cc(C(F)(F)F)cc(C(F)(F)F)c2)[C@H](C)C1=O	30 to 300
Cc1cccc(C)c1N1C[C@@](CN2CCOCC2)(C(=O)Nc2cc(C3CC3)cc(C(F)(F)F)c2)[C@H](C)C1=O	30 to 300
Cc1cccc(C)c1N1CC2(C(=O)Nc3cc(C(F)(F)F)cc(C(F)(F)F)c3)CC(F)(F)CC2C1=O (centres undefined)	≤ 30
Cc1cccc(C)c1N1C[C@@](CN2CCC(F)(F)C2)(C(=O)Nc2cc(C(F)(F)F)cc(C(F)(F)F)c2)[C@H](C)C1=O	30 to 300
Cc1cccc(C)c1N1CC(C(=O)Nc2cc(C(F)(F)F)cc(C(F)(F)F)c2)(C2CCN(C(=O)OC(C)(C)C)CC2)CC1=O (centres undefined)	≤ 30
Cc1cccc(C)c1N1CC(C(=O)Nc2cc(N3CCCCC3)cc(C(F)(F)F)c2)CC1=O (centres undefined)	30 to 300
CNC1(C(=O)Nc2cc(C(F)(F)F)cc(C(F)(F)F)c2)CC(=O)N(c2c(C)cccc2C)C1 (centres undefined)	≤ 30
Cc1cccc(C)c1N1C[C@@](CN2CCN(CC(F)(F)F)CC2)(C(=O)Nc2cc(F)cc(C(F)(F)F)c2)[C@H](C)C1=O	30 to 300
COc1ccccc1N1CC(C(=O)Nc2cc(C3CC3)cc(C(F)(F)F)c2)(C(C)C)CC1=O (centres undefined)	300 to 6000
CC(C)C1(C(=O)Nc2cc(C(F)(F)F)cc(C(F)(F)F)c2)CC(=O)N(c2ccccc2CN2CCOCC2)C1 (centres undefined)	300 to 6000
COCCOc1cc(NC(=O)C2(C(C)C)CC(=O)N(c3c(C)cccc3Br)C2)cc(C(F)(F)F)c1 (centres undefined)	300 to 6000
COc1cc(NC(=O)C2CC(=O)N(c3c(C)cccc3C)C2)cc(C(F)(F)F)c1 (centres undefined)	30 to 300
Cc1cccc(C)c1N1C[C@]2(C(=O)Nc3cc(C(F)(F)F)cc(C(F)(F)F)c3)CCO[C@@H]2C1=O	≤ 30
Cc1ccc(N2CC(C(=O)Nc3cc(C(F)(F)F)cc(C(F)(F)F)c3)CC2=O)c(C)c1 (centres undefined)	30 to 300
CCN(CC)C[C@@]1(C(=O)Nc2cc(C3CC3)cc(C(F)(F)F)c2)CN(c2c(C)cccc2C)C(=O)[C@H]1C	≤ 30
Cc1cccc(C)c1N1CC(CN2CCCC2)(C(=O)Nc2cc(C(F)(F)F)cc(C(F)(F)F)c2)CC1=O (centres undefined)	300 to 6000
Cc1cccc(C)c1N1CC(Cc2ncc[nH]2)(C(=O)Nc2cc(C(F)(F)F)cc(C(F)(F)F)c2)CC1=O (centres undefined)	30 to 300
Cc1cccc(C)c1N1CC(NC(C)C)(C(=O)Nc2cc(C(F)(F)F)cc(C(F)(F)F)c2)CC1=O (centres undefined)	≤ 30
Cc1cccc(C)c1N1C[C@@](CN2CCCC2)(C(=O)Nc2cc(C#N)cc(C(F)(F)F)c2)[C@H](C)C1=O	≤ 30

Compound	IC50 [nM]
COc1cccc(C)c1N1CC(C(=O)Nc2cc(C(F)(F)F)cc(C(F)(F)F)c2)(C(C)C)CC1=O (centres undefined)	300 to 6000
Cc1cccc(C)c1N1CC(C(=O)Nc2ccc(Cl)c(Cl)c2)CC1=O (centres undefined)	300 to 6000
Cc1cccc(C)c1N1C[C@@](CN(C)CC(C)C)(C(=O)Nc2cc(C(F)(F)F)cc(C(F)(F)F)c2)[C@H](C)C1=O	≤ 30
CCCC1(C(=O)Nc2cc(C(F)(F)F)cc(C(F)(F)F)c2)CC(=O)N(c2c(C)cccc2C)C1 (centres undefined)	≤ 30
CCN(C[C@@]1(C(=O)Nc2cc(C#N)cc(C(F)(F)F)c2)CN(c2c(C)cccc2C)C(=O)[C@H]1C)C(C)C	≤ 30
Cc1cccc(C)c1N1C[C@@](CN2CCC(F)CC2)(C(=O)Nc2cc(C(F)(F)F)cc(C(F)(F)F)c2)[C@H](C)C1=O	30 to 300
CCOCc1cccc(C)c1N1CC(C(=O)Nc2cc(C(F)(F)F)cc(C(F)(F)F)c2)(C(C)C)CC1=O (centres undefined)	300 to 6000
CC(C)C1(C(=O)Nc2cc(C(F)(F)F)cc(C(F)(F)F)c2)CC(=O)N(c2ccccc2CO)C1 (centres undefined)	300 to 6000
CCCCC1(C(=O)Nc2cc(C(F)(F)F)cc(C(F)(F)F)c2)CC(=O)N(c2c(C)cccc2C)C1 (centres undefined)	≤ 30
CCN(CC(C)C)C[C@@]1(C(=O)Nc2cc(C(F)(F)F)cc(C(F)(F)F)c2)CN(c2c(C)cccc2C)C(=O)[C@H]1C	≤ 30
Cc1cccc(C)c1N1CC(C(=O)Nc2cccc(C#N)c2)CC1=O (centres undefined)	300 to 6000
Cc1cccc(C)c1N1CC(C(=O)Nc2cc(Cl)cc(C(F)(F)F)c2)CC1=O (centres undefined)	30 to 300
Cc1cccc(S(C)(=O)=O)c1N1CC(C(=O)Nc2cc(C(F)(F)F)cc(C(F)(F)F)c2)CC1=O (centres undefined)	300 to 6000
Cc1cccc(C)c1N1C[C@@](CN(CCF)CC2CC2)(C(=O)Nc2cc(C(F)(F)F)cc(C(F)(F)F)c2)[C@H](C)C1=O	≤ 30
Cc1cccc(C)c1N1CC(C(=O)Nc2cc(C(F)(F)F)cc(C(F)(F)F)c2)(C2CCNC2)CC1=O (centres undefined)	300 to 6000
Cc1cccc(C)c1N1C[C@](C(=O)Nc2cc(OC(C)C)cc(C(F)(F)F)c2)(C(C)C)CC1=O	≤ 30
Cc1cccc(C)c1N1CC2(C(=O)Nc3cc(C(F)(F)F)cc(C(F)(F)F)c3)CCCC2C1=O (centres undefined)	≤ 30
Cc1cccc(C)c1N1CC(COCc2ccccc2)(C(=O)Nc2cc(C(F)(F)F)cc(C(F)(F)F)c2)CC1=O (centres undefined)	≤ 30
Cc1cccc(C)c1N1CC(C(=O)Nc2cc(C(F)(F)F)cc(C(F)(F)F)c2)(C2CCSCC2)CC1=O (centres undefined)	≤ 30
Cc1cccc(C)c1N1C[C@](C(=O)Nc2cc(C(F)(F)F)cc(C(F)(F)F)c2)(C(C)C)[C@H](C)C1=O	30 to 300
Cc1cccc(C)c1N1C[C@@](CN(C)C2CCCCC2)(C(=O)Nc2cc(C(F)(F)F)cc(C(F)(F)F)c2)[C@H](C)C1=O	≤ 30
Cc1cccc(C)c1N1C[C@@](CN2CCCCC2)(C(=O)Nc2cc(C#N)cc(C(F)(F)F)c2)[C@H](C)C1=O	≤ 30
Cc1cccc(C)c1N1CC2(C(=O)Nc3cc(C(F)(F)F)cc(C(F)(F)F)c3)COCC2C1=O (centres undefined)	30 to 300

Reference: ChEMBL document CHEMBL3879908, “Pyrrolidinone carboxamide derivatives” (2014)
